Experimental data as given in patent US20180303141A1, “FLAVOR COMPOSITION FOR FOOD PRODUCTS” (NESTEC S.A., priority 2015, published 2018).

Assays:
[1] = test system: panel of six experienced tasters; assay: Evaluation of the umami impression of the pea extract in different bouillon bases (scale 0-3); format: in vivo, human; conditions: bouillon base containing sub-threshold MSG (60 mg/L), no pea extract; average of six tasters, 0=no umami, 3=strong umami
From the text: It is clear from Example 3 that the umami impression cannot be explained solely by the MSG content. The MSG taste threshold is described in the literature as between 0.255 and 0.5 g MSG/L (1.5-3 mmol/L) (Behrens, M., et al. (2011) Sweet and Umami Taste: Natural Products, Their Chemosensory Targets, and Beyond; Angew. Chem. Int. Ed., 50, 2220-2242). Therefore the MSG content for the Pisum sativum extract is below the taste threshold. To confirm the umami taste of the pea extract, all MSG containing ingredients (MSG, ribonucleotides and yeast extract) were removed from a standard bouillon. Pea extract was added. […] The effect of the addition of a pea extract to a bouillon base (which has no intrinsic umami taste) is to provide a strong umami taste. It is clear that the pea extract alone promotes umami taste, and that this effect is even greater in the presence of MSG.
The pea extract used was obtained by a blanching water process containing the composition as described in table 1.
The results given are the average rating of a panel of six experienced tasters rating the umami intensity (0=no umami; 1=umami barely perceivable; 2=umami clearly perceivable; 3=strong umami).

[2] = test system: panel of 12 experienced tasters; assay: Comparison of the umami impression of a standard bouillon containing MSG and a bouillon with pea extract but no MSG (scale 0-10); format: in vivo, human; conditions: standard bouillon containing MSG; average of 12 tasters, 0=no umami, 10=strong umami
From the text: A standard bouillon containing no MSG but added pea extract was compared to the same standard bouillon containing MSG. A trained panel rated the bouillons on a scale from 0 (no umami) to 10 (strong umami). This gives evidence that the pea extract delivers a strong umami even it is less than to MSG itself, but the taste is received as being more natural and round mouthfeel instead of using MSG alone. […] The pea extract used was obtained by a blanching water process containing the composition as described in table 1. The results given are the average rating of a panel of 12 experienced tasters rating the umami intensity (0=no umami; 10=strong umami).

[3] = test system: sensory panel of 6 trained persons; assay: Sensory evaluation of pea extract dissolved in water, umami intensity on a 3-point scale versus a control sample; format: in vivo, human; conditions: calculated for the example with pea extract containing 0.5% beta-R in water
Procedure: Different pea extract from Pisum sativum containing the composition as described in table 1 has been used to define the threshold concentrates in a sensory panel of 6 trained persons. The technical tasting was measured versus a control sample. Tasters were asked to judge the different products according to umami intensity on a 3-point scale.

umami taste = assay: Fractionation of aqueous pea extract and analysis of the fractions with strong umami taste; conditions: compound identified in pea extract
Procedure: The applicant prepared an aqueous extract of pea, preferably green pea and then subjected that extract to fractionation.
The compounds were isolated and characterized using two-dimensional preparative chromatography. For example, size exclusion chromatography in the first dimension, then hydrophilic interaction column (normal phase) in a second dimension. Identification of compounds was carried out using conventional analytical methods such as LC-MS or NMR.

Compound	Umami Rating [1]	Umami Rating [2]	threshold concentrate [3]	Contribution to umami taste (in words) (umami taste)
N[C@@H](CCC(=O)O)C(=O)[O-].[Na+] [MSG, Monosodium glutamate]	0	5		
(5R)-(β-D-glucopyranosyloxy)-1,5-dihydro-2H-pyrrol-2-one [beta-R]			147 ppm	responsible to provide and enhance an umami taste
